Assay results from patent US20150291625A1 (PFIZER INC., priority 2012, published 2015).
Several values for one entry are separate records, joined by “and”; a condition that tells them apart may be missing. Equal values may be shown once. Where a name gives a salt, the structure may show the parent alone.

How the values were obtained:
[1] = target: T1, D1 (Homo sapiens, UniProt P21728); assay: Human D1 receptor binding assay ([3H]-SCH23390 competition); conditions: Human D1 Receptor Binding, Ki (nM), Geometric mean of 2-4 determinations, a: >=5 determinations, d: single determination
T1 sequence (P21728 whole entry): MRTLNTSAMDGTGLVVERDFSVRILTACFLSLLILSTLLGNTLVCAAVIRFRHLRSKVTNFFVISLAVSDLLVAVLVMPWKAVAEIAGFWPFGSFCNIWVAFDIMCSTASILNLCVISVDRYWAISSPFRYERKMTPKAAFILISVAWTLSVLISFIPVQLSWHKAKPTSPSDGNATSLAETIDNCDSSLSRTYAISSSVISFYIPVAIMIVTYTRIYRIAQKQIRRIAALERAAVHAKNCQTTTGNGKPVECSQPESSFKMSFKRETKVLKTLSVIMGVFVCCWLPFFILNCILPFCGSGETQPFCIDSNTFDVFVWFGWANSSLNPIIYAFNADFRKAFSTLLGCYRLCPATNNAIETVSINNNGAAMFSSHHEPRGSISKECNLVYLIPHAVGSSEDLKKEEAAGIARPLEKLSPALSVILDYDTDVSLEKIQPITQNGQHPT

[2] = target: T1, D1; assay: D1 cAMP HTRF assay (HEK293T/hD1#1 stable cell line); type: cell-based; design: expressed in transfected cells
Outline: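 Agonist-mode HTRF cAMP assay in HEK293T/hD1#1 stable cells resuspended in PBS with 0.5 μM IBMX; compound exposure 30 min at room temperature, then cAMP-D2 and anti-cAMP-cryptate detection for 1 h. EC50 from raw ratio data or from cAMP levels interpolated on a standard curve; percent effect versus controls.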

Ki [1]	EC50 [2]	Compound
117 nM	710 nM and 1520 nM	Cc1cc(Oc2nccc3occc23)ccc1-c1cccnc1C1CC1 [Example 88, 4-[4-(2-cyclopropylpyridin-3-yl)-3-methylphenoxy]furo[3,2-c]pyridine]
123 nM	1860 nM	Cc1cc(Oc2nccc3occc23)ccc1-c1c(C)cccc1C [Example 89, 4-[(2,2′,6′-trimethylbiphenyl-4-yl)oxy]furo[3,2-c]pyridine, trifluoroacetate salt]
25.4 nM	448 nM	Cc1nc(N)ccc1-c1ccc(Oc2nccc3occc23)cc1Cl [Example 90, 5-[2-chloro-4-(furo[3,2-c]pyridin-4-yloxy)phenyl]-6-methylpyridin-2-amine]
61.2 nM	580 nM	Cc1ncc(N)nc1-c1ccc(Oc2nccc3occc23)cc1C(F)(F)F [Example 91, 6-[4-(furo[3,2-c]pyridin-4-yloxy)-2-(trifluoromethyl)phenyl]-5-methylpyrazin-2-amine]
25.2 nM	746 nM	Cc1ncccc1-c1ccc(Oc2nccc3occc23)cc1F [Example 92, 4-[3-fluoro-4-(2-methylpyridin-3-yl)phenoxy]furo[3,2-c]pyridine]
88 nM	761 nM	Cc1ncc(N)nc1-c1ccc(Oc2nccc3occc23)cc1F [Example 93, 6-[2-fluoro-4-(furo[3,2-c]pyridin-4-yloxy)phenyl]-5-methylpyrazin-2-amine]
7.08 nM	837 nM	COc1cc(Oc2nccc3occc23)ccc1-c1c(OC)ccc2cnccc12 [Example 94, 5-[4-(furo[3,2-c]pyridin-4-yloxy)-2-methoxyphenyl]-6-methoxyisoquinoline, formate salt]
27.3 nM	444 nM	Cc1cc(Oc2nccc3occc23)ccc1-c1c(C)ncnc1N1CCC1 [Example 95, 4-{4-[4-(azetidin-1-yl)-6-methylpyrimidin-5-yl]-3-methylphenoxy}furo[3,2-c]pyridine, formate salt]
24.5 nM	306 nM	Cc1cc(Oc2nccc3occc23)ccc1-c1c(C)ncnc1N1Cc2cn[nH]c2C1 [Example 96, 4-{4-[4-(4,6-dihydropyrrolo[3,4-c]pyrazol-5(1H)-yl)-6-methylpyrimidin-5-yl]-3-methylphenoxy}furo[3,2-c]pyridine, trifluoroacetate salt]
7.52 nM	205 nM	Cc1cc(Oc2nccc3occc23)ccc1-c1c(C)ncnc1N1CC(F)C1 [Example 97, 4-{4-[4-(3-fluoroazetidin-1-yl)-6-methylpyrimidin-5-yl]-3-methylphenoxy}furo[3,2-c]pyridine, formate salt]
28.6 nM	956 nM	Cc1cc(Oc2nccc3occc23)ccc1-c1c(C)ncnc1N1CCC(F)C1 (stereo not drawn) [Example 98, 4-{4-[4-(3-fluoropyrrolidin-1-yl)-6-methylpyrimidin-5-yl]-3-methylphenoxy}furo[3,2-c]pyridine, trifluoroacetate salt]
1370 nM	3040 nM and > 9950 nM	Cc1ncnc(C)c1-c1ccc(Oc2nccc3occc23)c(C)c1C [Example 99, 4-[4-(4,6-dimethylpyrimidin-5-yl)-2,3-dimethylphenoxy]furo[3,2-c]pyridine]
11 nM	112 nM and 580 nM	Cc1ncc2nccn2c1-c1ccc(Oc2nccc3occc23)cc1C(F)(F)F [Example 100, 5-[4-(furo[3,2-c]pyridin-4-yloxy)-2-(trifluoromethyl)phenyl]-6-methylimidazo[1,2-a]pyrazine]
431 nM	3450 nM	Cc1cc(-c2c(C)ncc3nccn23)c(C)cc1Oc1nccc2occc12 [Example 101, 5-[4-(furo[3,2-c]pyridin-4-yloxy)-2,5-dimethylphenyl]-6-methylimidazo[1,2-a]pyrazine]
84.6 nM	714 nM	Cc1cc(Oc2nccc3occc23)ccc1-c1c(C)ncn1C [Example 102, 4-[4-(1,4-dimethyl-1H-imidazol-5-yl)-3-methylphenoxy]furo[3,2-c]pyridine]
